Test results published in patent US10800772B2 (Gilead Sciences, Inc., priority 2016, dated 2020).
Read-outs that look alike come from different tables or passages of the source.

Legend:
Format in all cases: cell-based, HIV-1
HIV-IIIb (wildtype) = assay: Antiviral assay in MT4 cells, HIV-IIIb wildtype; conditions: read-out: WT EC50
Procedure, shortened: (§1)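 MT4 cells were pre-infected for 3 h at 37 °C with HIV-IIIb (0.004 m.o.i.), then plated at 2000 cells per well with 3-fold serially diluted compound (10 concentrations, quadruplicate). After 5 days at 37 °C, CellTiter-Glo luminescence was read, and EC50 was taken as the concentration giving a 50% decrease in signal.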

HIV-IIIb IN T174I DE = assay: Antiviral assay in MT4 cells, HIV-IIIb IN T174I DE virus (from dose escalation passaging)
Procedure, shortened: as §1

HIV-IIIb IN T174I BT = assay: Antiviral assay in MT4 cells, HIV-IIIb IN T174I BT virus (from viral breakthrough)
Procedure, shortened: as §1

[1] = Human immunodeficiency virus 1, IIIB, MT4, 120 h
[2] = Human immunodeficiency virus 1, IIIB, MT4, 120 h, read-out: T174I DE EC50, MT4 cells, HIV-IIIb IN T174I DE (dose escalation), 5 days, CellTiter-Glo
[3] = Human immunodeficiency virus 1, IIIB, MT4, 120 h, read-out: T174I BT EC50, MT4 cells, HIV-IIIb IN T174I BT (viral breakthrough), 5 days, CellTiter-Glo

For `Cc1cc2nc(-c3ccc4c(c3)c(C3CCN(C5CCC5)C3)nn4C)sc2c(-c2ccc(Cl)cc2)c1[C@H](OC(C)(C)C)C(=O)O` (stereo partly drawn) [Compound 71, (2S)-2-(tert-butoxy)-2-(7-(4-chlorophenyl)-2-(3-(1-cyclobutylpyrrolidine-3-yl)-1-methyl-1H-indazol-5-yl)-5-methylbenzo[d]thiazol-6-yl)acetic acid], the EC50 (HIV-IIIb (wildtype); [1]) was 5 nM, the EC50 (HIV-IIIb IN T174I DE; [2]) was 2240 nM and the EC50 (HIV-IIIb IN T174I BT; [3]) was 2470 nM.

For `COC(=O)N1CCC(c2nn(C)c3ccc(-c4nc5cc(C)c([C@H](OC(C)(C)C)C(=O)O)c(-c6ccc(Cl)cc6)c5s4)cc23)C1` (stereo partly drawn) [Compound 72, (2S)-2-(tert-butoxy)-2-(7-(4-chlorophenyl)-2-(3-(1-(methoxycarbonyl)pyrrolidin-3-yl)-1-methyl-1H-indazol-5-yl)-5-methylbenzo[d]thiazol-6-yl)acetic acid], the EC50 (HIV-IIIb (wildtype); [1]) was 7 nM, the EC50 (HIV-IIIb IN T174I DE; [2]) was 1030 nM and the EC50 (HIV-IIIb IN T174I BT; [3]) was 553 nM.

For `COCC(=O)N1CCC(c2nn(C)c3ccc(-c4nc5cc(C)c([C@H](OC(C)(C)C)C(=O)O)c(-c6ccc(Cl)cc6)c5s4)cc23)C1` (stereo partly drawn) [Compound 75, (S)-2-(tert-butoxy)-2-(7-(4-chlorophenyl)-2-(3-((R)-1-(2-methoxyacetyl)pyrrolidin-3-yl)-1-methyl-1H-indazol-5-yl)-5-methylbenzo[d]thiazol-6-yl)acetic acid], the EC50 (HIV-IIIb (wildtype); [1]) was 16 nM, the EC50 (HIV-IIIb IN T174I DE; [2]) was 496 nM and the EC50 (HIV-IIIb IN T174I BT; [3]) was 423 nM.

With `COCC(=O)N1CCC(c2nn(C)c3ccc(-c4nc5cc(C)c([C@H](OC(C)(C)C)C(=O)O)c(-c6ccc(Cl)cc6)c5s4)cc23)C1` (stereo partly drawn) [Compound 76, (S)-2-(tert-butoxy)-2-(7-(4-chlorophenyl)-2-(3-((S)-1-(2-methoxyacetyl)pyrrolidin-3-yl)-1-methyl-1H-indazol-5-yl)-5-methylbenzo[d]thiazol-6-yl)acetic acid] the EC50 (HIV-IIIb (wildtype); MT4 cells, HIV-IIIb wildtype, 5 days, CellTiter-Glo) was 16 nM, the EC50 (HIV-IIIb IN T174I DE; read-out: T174I DE EC50, MT4 cells, HIV-IIIb IN T174I DE (dose escalation), 5 days, CellTiter-Glo) was 906 nM and the EC50 (HIV-IIIb IN T174I BT; read-out: T174I BT EC50, MT4 cells, HIV-IIIb IN T174I BT (viral breakthrough), 5 days, CellTiter-Glo) was 510 nM.

For `Cc1cc2nc(-c3ccc4c(c3)c(N3CCNC3=O)nn4C)sc2c(-c2ccc(Cl)cc2)c1[C@H](OC(C)(C)C)C(=O)O` [Compound 78, (S)-2-(tert-butoxy)-2-(7-(4-chlorophenyl)-5-methyl-2-(1-methyl-3-(2-oxoimidazolidin-1-yl)-1H-indazol-5-yl)benzo[d]thiazol-6-yl)acetic acid], the EC50 (HIV-IIIb (wildtype); [1]) was 32 nM, the EC50 (HIV-IIIb IN T174I DE; [2]) was 3190 nM and the EC50 (HIV-IIIb IN T174I BT; [3]) was 2690 nM.

In the case of `COCCN1CCN(c2nn(C)c3ccc(-c4nc5cc(C)c([C@H](OC(C)(C)C)C(=O)O)c(-c6ccc(Cl)cc6)c5s4)cc23)C1=O` [Compound 79, (S)-2-(tert-butoxy)-2-(7-(4-chlorophenyl)-2-(3-(3-(2-methoxyethyl)-2-oxoimidazolidin-1-yl)-1-methyl-1H-indazol-5-yl)-5-methylbenzo[d]thiazol-6-yl)acetic acid], the EC50 (HIV-IIIb (wildtype); [1]) is reported as 7 nM, the EC50 (HIV-IIIb IN T174I DE; [2]) is reported as 2180 nM and the EC50 (HIV-IIIb IN T174I BT; [3]) is reported as 2320 nM.

For `CCN1CCN(c2nn(C)c3ccc(-c4nc5cc(C)c([C@H](OC(C)(C)C)C(=O)O)c(-c6ccc(Cl)cc6)c5s4)cc23)C1=O` [Compound 82, (S)-2-(tert-butoxy)-2-(7-(4-chlorophenyl)-2-(3-(3-ethyl-2-oxoimidazolidin-1-yl)-1-methyl-1H-indazol-5-yl)-5-methylbenzo[d]thiazol-6-yl)acetic acid], the EC50 (HIV-IIIb (wildtype); [1]) was 14 nM, the EC50 (HIV-IIIb IN T174I DE; [2]) was 3870 nM and the EC50 (HIV-IIIb IN T174I BT; [3]) was 3090 nM.

`Cc1cc2nc(-c3ccc4c(c3)c(N3CCN(CCN5CCOCC5)C3=O)nn4C)sc2c(-c2ccc(Cl)cc2)c1[C@H](OC(C)(C)C)C(=O)O` [Compound 83, (S)-2-(tert-butoxy)-2-(7-(4-chlorophenyl)-5-methyl-2-(1-methyl-3-(3-(2-morpholinoethyl)-2-oxoimidazolidin-1-yl)-1H-indazol-5-yl)benzo[d]thiazol-6-yl)acetic acid] was tested, and the EC50 (HIV-IIIb (wildtype); [1]) was 17 nM, the EC50 (HIV-IIIb IN T174I DE; [2]) was 2810 nM and the EC50 (HIV-IIIb IN T174I BT; [3]) was 2230 nM.

Work on `CCN1CCN(c2nn(C)c3ccc(-c4nc5cc(C)c([C@H](OC(C)(C)C)C(=O)O)c(-c6ccc(Cl)cc6)c5s4)cc23)CC1=O` [Compound 84, (S)-2-(tert-butoxy)-2-(7-(4-chlorophenyl)-2-(3-(4-ethyl-3-oxopiperazin-1-yl)-1-methyl-1H-indazol-5-yl)-5-methylbenzo[d]thiazol-6-yl)acetic acid] yielded an EC50 (HIV-IIIb (wildtype); [1]) of 48 nM, an EC50 (HIV-IIIb IN T174I DE; [2]) of 1870 nM and an EC50 (HIV-IIIb IN T174I BT; [3]) of 1250 nM.

`Cc1cc2nc(-c3ccc4c(c3)c(N3CCN(C)C(=O)C3)nn4C)sc2c(-c2ccc(Cl)cc2)c1[C@H](OC(C)(C)C)C(=O)O` [Compound 85, (S)-2-(tert-butoxy)-2-(7-(4-chlorophenyl)-5-methyl-2-(1-methyl-3-(4-methyl-3-oxopiperazin-1-yl)-1H-indazol-5-yl)benzo[d]thiazol-6-yl)acetic acid] gave an EC50 (HIV-IIIb (wildtype); [1]) of 57 nM, an EC50 (HIV-IIIb IN T174I DE; [2]) of 1170 nM and an EC50 (HIV-IIIb IN T174I BT; [3]) of 1350 nM.

With `CCN1CCN(c2nn(C)c3ccc(-c4nc5cc(C)c([C@H](OC(C)(C)C)C(=O)O)c(-c6ccc(Cl)cc6)c5s4)cc23)C(=O)C1` [Compound 86, (S)-2-(tert-butoxy)-2-(7-(4-chlorophenyl)-2-(3-(4-ethyl-2-oxopiperazin-1-yl)-1-methyl-1H-indazol-5-yl)-5-methylbenzo[d]thiazol-6-yl)acetic acid] the EC50 (HIV-IIIb (wildtype); [1]) was 15 nM, the EC50 (HIV-IIIb IN T174I DE; [2]) was 2000 nM and the EC50 (HIV-IIIb IN T174I BT; [3]) was 2330 nM.

With `Cc1cc2nc(-c3ccc4c(c3)c(N3CC(N5CCOCC5)C3)nn4C)sc2c(-c2ccc(Cl)cc2)c1[C@H](OC(C)(C)C)C(=O)O` [Compound 88, (S)-2-(tert-butoxy)-2-(7-(4-chlorophenyl)-5-methyl-2-(1-methyl-3-(3-morpholinoazetidin-1-yl)-1H-indazol-5-yl)benzo[d]thiazol-6-yl)acetic acid] the EC50 (HIV-IIIb (wildtype); [1]) was 10 nM, the EC50 (HIV-IIIb IN T174I DE; [2]) was 1700 nM and the EC50 (HIV-IIIb IN T174I BT; [3]) was 1240 nM.

For `Cc1cc2nc(-c3ccc4c(c3)c(N3CC5(CN(C)C5)C3)nn4C)sc2c(-c2ccc(Cl)cc2)c1[C@H](OC(C)(C)C)C(=O)O` [Compound 89, (S)-2-(tert-butoxy)-2-(7-(4-chlorophenyl)-5-methyl-2-(1-methyl-3-(6-methyl-2,6-diazaspiro[3.3]heptan-2-yl)-1H-indazol-5-yl)benzo[d]thiazol-6-yl)acetic acid], the EC50 (HIV-IIIb (wildtype); [1]) was 107 nM, the EC50 (HIV-IIIb IN T174I DE; [2]) was 57000 nM and the EC50 (HIV-IIIb IN T174I BT; [3]) was 57000 nM.

`Cc1cc2nc(-c3ccc4c(c3)c(N3CC(N(C)C)C3)nn4C)sc2c(-c2ccc(Cl)cc2)c1[C@H](OC(C)(C)C)C(=O)O` [Compound 90, (S)-2-(tert-butoxy)-2-(7-(4-chlorophenyl)-2-(3-(3-(dimethylamino)azetidin-1-yl)-1-methyl-1H-indazol-5-yl)-5-methylbenzo[d]thiazol-6-yl)acetic Acid] gave an EC50 (HIV-IIIb (wildtype); [1]) of 8 nM, an EC50 (HIV-IIIb IN T174I DE; [2]) of 1350 nM and an EC50 (HIV-IIIb IN T174I BT; [3]) of 1180 nM.

With `Cc1cc2nc(-c3ccc4c(c3)c(N3CC5(COC5)C3)nn4C)sc2c(-c2ccc(Cl)cc2)c1[C@H](OC(C)(C)C)C(=O)O` [Compound 91, (S)-2-(tert-butoxy)-2-(7-(4-chlorophenyl)-5-methyl-2-(1-methyl-3-(2-oxa-6-azaspiro[3.3]heptan-6-yl)-1H-indazol-5-yl)benzo[d]thiazol-6-yl)acetic acid] the EC50 (HIV-IIIb (wildtype); [1]) was 11 nM, the EC50 (HIV-IIIb IN T174I DE; [2]) was 2440 nM and the EC50 (HIV-IIIb IN T174I BT; [3]) was 1720 nM.

Molecule `Cc1cc2nc(-c3ccc4c(c3)c(N3CC[C@H](N(C)C)C3)nn4C)sc2c(-c2ccc(Cl)cc2)c1[C@H](OC(C)(C)C)C(=O)O` [Compound 93, (S)-2-(tert-butoxy)-2-(7-(4-chlorophenyl)-2-(3-((S)-3-(dimethylamino)pyrrolidin-1-yl)-1-methyl-1H-indazol-5-yl)-5-methylbenzo[d]thiazol-6-yl)acetic acid] has an EC50 (HIV-IIIb (wildtype); [1]) of 13 nM, an EC50 (HIV-IIIb IN T174I DE; [2]) of 3450 nM and an EC50 (HIV-IIIb IN T174I BT; [3]) of 1010 nM.

`CN[C@H]1CCN(c2nn(C)c3ccc(-c4nc5cc(C)c([C@H](OC(C)(C)C)C(=O)O)c(-c6ccc(Cl)cc6)c5s4)cc23)C1` [Compound 94, (S)-2-(tert-butoxy)-2-(7-(4-chlorophenyl)-5-methyl-2-(1-methyl-3-((S)-3-(methylamino)pyrrolidin-1-yl)-1H-indazol-5-yl)benzo[d]thiazol-6-yl)acetic acid] showed an EC50 (HIV-IIIb (wildtype); [1]) of 38 nM, an EC50 (HIV-IIIb IN T174I DE; [2]) of 2520 nM and an EC50 (HIV-IIIb IN T174I BT; [3]) of 2720 nM.

In the case of `CN[C@@H]1CCN(c2nn(C)c3ccc(-c4nc5cc(C)c([C@H](OC(C)(C)C)C(=O)O)c(-c6ccc(Cl)cc6)c5s4)cc23)C1` [Compound 95, (S)-2-(tert-butoxy)-2-(7-(4-chlorophenyl)-5-methyl-2-(1-methyl-3-((R)-3-(methylamino)pyrrolidin-1-yl)-1H-indazol-5-yl)benzo[d]thiazol-6-yl)acetic acid], the EC50 (HIV-IIIb (wildtype); [1]) is reported as 41 nM, the EC50 (HIV-IIIb IN T174I DE; [2]) is reported as 11500 nM and the EC50 (HIV-IIIb IN T174I BT; [3]) is reported as 1750 nM.

`Cc1cc2nc(-c3ccc4c(c3)c(N3CC5(CCCCC5)C3)nn4C)sc2c(-c2ccc(Cl)cc2)c1[C@H](OC(C)(C)C)C(=O)O` [Compound 97, (S)-2-(tert-butoxy)-2-(7-(4-chlorophenyl)-5-methyl-2-(1-methyl-3-(2-azaspiro[3.5]nonan-2-yl)-1H-indazol-5-yl)benzo[d]thiazol-6-yl)acetic acid] showed an EC50 (HIV-IIIb (wildtype); [1]) of 150 nM, an EC50 (HIV-IIIb IN T174I DE; [2]) of 9190 nM and an EC50 (HIV-IIIb IN T174I BT; [3]) of 6810 nM.

`Cc1cc2nc(-c3ccc4c(c3)c(N3CC5CC(C3)N5C)nn4C)sc2c(-c2ccc(Cl)cc2)c1[C@H](OC(C)(C)C)C(=O)O` [Compound 101, (2S)-2-(tert-butoxy)-2-(7-(4-chlorophenyl)-5-methyl-2-(1-methyl-3-(6-methyl-3,6-diazabicyclo[3.1.1]heptan-3-yl)-1H-indazol-5-yl)benzo[d]thiazol-6-yl)acetic Acid] showed an EC50 (HIV-IIIb (wildtype); Human immunodeficiency virus 1, 120 h, MT4 cells, HIV-IIIb wildtype, 5 days, CellTiter-Glo) of 58 nM, an EC50 (HIV-IIIb IN T174I DE; [2]) of 57000 nM and an EC50 (HIV-IIIb IN T174I BT; [3]) of 57000 nM.
